Legend:
[1] = tested on: distal branches of the sympathetic nerve innervating the interscapular brown adipose tissue; test: Brown adipose tissue sympathetic nerve activity (BAT-SNA) after intragastric administration, Test Example 1; type: in vivo, rat; conditions: urethane-anesthetized male rats, measured for 60 minutes, FIG. 2
Protocol: The effect of the intragastric administration of the compound represented by Structural Formula (1) on the activity of the sympathetic nerve innervating the white adipose tissue, the brown adipose tissue, the adrenal gland, or the liver was tested in the following manner. For the experiment, male Whistar rats (approximately 9 weeks old) each having a body weight of approximately 300 g were kept in a 24° C. thermostatic animal room for 1 week or longer with a 12-hour light-dark cycle (lighting from 8:00 to 20:00). On the day of the experiment, the rats were fasted for 3 hours, followed by anesthetizing with urethane. A cannula for intragastric administration was inserted into each of the rats, and then distal branches of the sympathetic nerve innervating the right epididymal white adipose tissue, the interscapular brown adipose tissue, the left adrenal gland, or the liver were lifted with a silver electrode, and the electrical activity thereof was measured. When the measurement value stabilized (at approximately 13:00), an aqueous solution of the compound represented by Structural Formula (1) (produced by Tokyo Chemical Industry Co., Ltd.) was intragastrically administered using the cannula at a dose of 15 mg/0.5 mL/300 g of body weight, 1.5 mg/0.5 mL/300 g of body weight, 0.15 mg/0.5 mL/300 g of body weight, or 0.015 mg/0.5 mL/300 g of body weight, and the change in the neural activity of the distal branches of the above sympathetic nerves was measured electrophysiologically for 60 minutes. In addition, as a control, water serving as a solvent was intragastrically administered using the cannula at a dose of 0.5 mL/300 g of body weight, and the change in the neural activity of the distal branches of the above sympathetic nerves was measured electrophysiologically for 60 minutes. […] The data of the neural activity was analyzed as the mean value of the firing rate per 5 seconds (pulse/5 s) every 5 minutes, and represented by a percentage relative to the mean value (a value at 0 minutes) at 5 minutes before the onset of stimulation being determined as 100%. […]

[2] = tested on: distal branches of the sympathetic nerve innervating the left adrenal gland; test: Adrenal sympathetic nerve activity (ASNA) after intragastric administration, Test Example 1; type: in vivo, rat; conditions: urethane-anesthetized male rats, measured for 60 minutes, FIG. 3
Protocol: The effect of the intragastric administration of the compound represented by Structural Formula (1) on the activity of the sympathetic nerve innervating the white adipose tissue, the brown adipose tissue, the adrenal gland, or the liver was tested in the following manner. For the experiment, male Whistar rats (approximately 9 weeks old) each having a body weight of approximately 300 g were kept in a 24° C. thermostatic animal room for 1 week or longer with a 12-hour light-dark cycle (lighting from 8:00 to 20:00). On the day of the experiment, the rats were fasted for 3 hours, followed by anesthetizing with urethane. A cannula for intragastric administration was inserted into each of the rats, and then distal branches of the sympathetic nerve innervating the right epididymal white adipose tissue, the interscapular brown adipose tissue, the left adrenal gland, or the liver were lifted with a silver electrode, and the electrical activity thereof was measured. When the measurement value stabilized (at approximately 13:00), an aqueous solution of the compound represented by Structural Formula (1) (produced by Tokyo Chemical Industry Co., Ltd.) was intragastrically administered using the cannula at a dose of 15 mg/0.5 mL/300 g of body weight, 1.5 mg/0.5 mL/300 g of body weight, 0.15 mg/0.5 mL/300 g of body weight, or 0.015 mg/0.5 mL/300 g of body weight, and the change in the neural activity of the distal branches of the above sympathetic nerves was measured electrophysiologically for 60 minutes. In addition, as a control, water serving as a solvent was intragastrically administered using the cannula at a dose of 0.5 mL/300 g of body weight, and the change in the neural activity of the distal branches of the above sympathetic nerves was measured electrophysiologically for 60 minutes. […] The data of the neural activity was analyzed as the mean value of the firing rate per 5 seconds (pulse/5 s) every 5 minutes, and represented by a percentage relative to the mean value (a value at 0 minutes) at 5 minutes before the onset of stimulation being determined as 100%. FIG. 3 illustrates, as a percentage with respect to the mean value (a value at 0 minutes) at 5 minutes before the onset of stimulation being determined as 100%, the result of the change in the neural activity of distal branches of the sympathetic nerves for the adrenal gland (adrenal sympathetic nerve activity, ASNA) when the aqueous solution including 15 mg, 1.5 mg, 0.15 mg, or 0.015 mg of the compound represented by Structural Formula (1) was intragastrically administered at a dose of 0.5 mL/300 g of body weight, or water serving as the solvent was intragastrically administered at a dose of 0.5 mL/300 g of body weight.

[3] = 0.15 mg/0.5 mL/300 g of body weight
[4] = 1.5 mg/0.5 mL/300 g of body weight
[5] = 15 mg/0.5 mL/300 g of body weight

COc1cc(CCC(=O)O)ccc1O [3-(4-hydroxy-3-methoxyphenyl) propionic acid]
change in brown adipose tissue sympathetic nerve activity (BAT-SNA) versus water control [1, 3]: higher than the BAT-SNA value of the group to which water serving as the solvent was administered
change in brown adipose tissue sympathetic nerve activity (BAT-SNA) versus water control [1, 4]: higher than the BAT-SNA value of the group to which water serving as the solvent was administered
change in brown adipose tissue sympathetic nerve activity (BAT-SNA) versus water control [1, 5]: higher than the BAT-SNA value of the group to which water serving as the solvent was administered
change in adrenal sympathetic nerve activity (ASNA) versus water control ([2]; 0.015 mg/0.5 mL/300 g of body weight): higher than the ASNA value of the group to which water serving as the solvent was administered
change in adrenal sympathetic nerve activity (ASNA) versus water control [2, 3]: higher than the ASNA value of the group to which water serving as the solvent was administered
change in adrenal sympathetic nerve activity (ASNA) versus water control [2, 4]: higher than the ASNA value of the group to which water serving as the solvent was administered
change in adrenal sympathetic nerve activity (ASNA) versus water control [2, 5]: higher than the ASNA value of the group to which water serving as the solvent was administered

— patent US20250302783A1, “SYMPATHETIC NERVE ACTIVATION AGENT AND SYMPATHETIC NERVE ACTIVATION COMPOSITION” (MARUZEN PHARMACEUTICALS CO., LTD., priority 2022, published 2025)
